Where two headings read alike, the source gives them in different places.
Key:
[1] = TEAC method (Trolox Equivalent Antioxidant Capacity Assay); format: biochemical; details: ratio of gradient to gradient of Trolox; 650 nm, 37 °C, about 90 minutes
In short: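 ABTS radical cation generated with H2O2/HRP in 50 mM citrate pH 4.5. Compounds at six concentrations between 25 and 300 µM mixed with the radical solution at 37 °C, and absorbance loss read at 650 nm until stable (~90 min). TEAC is the slope of absorbance versus nmol compound divided by the Trolox slope.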

[2] = test system: doxorubicin-induced cerebral oxidative stress in mice; assay: In vivo assay of cerebral oxidative stress induced in mice by doxorubicin (model and oxidized animals); details: for inhibition in vivo at 50 mg/kg / change in vivo at 50 mg/kg: Mus musculus; for inhibition in vivo at 50 mg/kg: overall, read-out: inhibition of the doxorubicin effect
In short: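 Mice (5/arm) dosed 50 mg/kg compound IP days 0–2; one arm also got doxorubicin 16.7 mg/kg IP after the day-0 dose. Brains collected day 3; homogenate (pH 7.4) assayed colorimetrically for oxidized protein, GSH, CAT, SOD, GST, GPx, normalized to protein. Effect: % inhibition of doxorubicin-induced change.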

[3] = test system: healthy animals; assay: Effect of the compounds on healthy animals (same in vivo assay, cerebral oxidative parameters); set-up: species or system mice; details: healthy mice; for Average % variation with respect to the vehicle: 50 mg/kg IP for three consecutive days, mean over all parameters, D = doxorubicin alone; for Brain/BWi / CAT/pr / GPX/pr / GSH/pr / GST/pr / Prot. Hmg / Prot. Ox/pr / SOD/pr: 50 mg/kg IP x3 days, percentage change relative to the vehicle
In short: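 Mice (10 per group) received compound 50 mg/kg IP on days 0–2, with half also given doxorubicin 16.7 mg/kg IP on day 0; brains were collected on day 3. Brain homogenates (pH 7.4) were assayed colorimetrically for […], protein, oxidized protein, GSH, CAT, SOD, GST and GPx. Result is mean % change across all parameters versus vehicle.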

[4] = Brain-to-plasma concentration ratio in mice; format: in vivo, Female CD-1 mice; details: female, CD-1, mouse, ip, 25 mg/kg intraperitoneal, area under the curve of brain and plasma concentrations 0 to 60 minutes, read-out: B/P ratio
Procedure: The ability of the compounds of the invention to penetrate the brain was investigated by measuring their brain/plasma (B/P) ratio in mice following intraperitoneal administration.
Female CD-1 mice were used (n=3 for each time period) and received the compounds of the invention by intraperitoneal administration, in 25 mg/kg doses in a 0.5% NaHCO3 buffer (pH 8.3). At predefined intervals following said administration, i.e. 5, 15, 30 and 60 minutes, the mice were killed and both plasma and total brain tissue were collected.
Specifically, after anaesthesia with ether, the animals were bled by blood withdrawal from the abdominal aorta then immediately decapitated. The blood samples were collected into plasma separator tubes containing Li-Heparin as anticoagulant and centrifuged. The resulting plasma was then stored at -20 °C. The brain was rapidly removed from the cranium and weighed, subsequently frozen and stored at -20 °C before treatment by homogenization and HPLC analysis.
The plasma was thawed and mixed with an equal volume of the extraction solution.
1 ml of solution was then extracted by adding 20 µl of 70% HClO4, then centrifuged at 15,500g for 5 minutes and injected into the HPLC.
Each brain was thawed and homogenized with the extraction solution to provide a final composition of 4 ml/1g of tissue by means of an Ultra-Turrax blender and sonicated for 5 minutes. After centrifugation of the homogenate at 15,500g for 5 minutes, the resulting solution was treated with HClO4, as indicated for the plasma. Specific chromatographic conditions had been developed for each analyte, the calibration curve being constructed for plasma and brain homogenate.

[5] = ip, compared with its own vehicle
[6] = ip, oxidized mice, % inhibition relative to change due to doxorubicin alone, vs its own, read-out: Brain/BWi its own
[7] = ip, oxidized mice, % inhibition relative to change due to doxorubicin alone, vs its own, read-out: CAT/pr its own
[8] = ip, oxidized mice, % inhibition relative to change due to doxorubicin alone, vs its own, read-out: GPX/pr its own
[9] = ip, oxidized mice, % inhibition relative to change due to doxorubicin alone, vs its own, read-out: GSH/pr its own
[10] = ip, oxidized mice, % inhibition relative to change due to doxorubicin alone, vs its own, read-out: GST/pr its own
[11] = ip, oxidized mice, % inhibition relative to change due to doxorubicin alone, vs its own, read-out: Prot. Hmg its own
[12] = ip, oxidized mice, % inhibition relative to change due to doxorubicin alone, vs its own, read-out: Prot. Ox/pr its own
[13] = ip, oxidized mice, % inhibition relative to change due to doxorubicin alone, vs its own, read-out: SOD/pr its own
[14] = ip, oxidized mice, % inhibition relative to change due to doxorubicin alone, vs vehicle, read-out: Brain/BWi vehicle
[15] = ip, oxidized mice, % inhibition relative to change due to doxorubicin alone, vs vehicle, read-out: CAT/pr vehicle
[16] = ip, oxidized mice, % inhibition relative to change due to doxorubicin alone, vs vehicle, read-out: GPX/pr vehicle
[17] = ip, oxidized mice, % inhibition relative to change due to doxorubicin alone, vs vehicle, read-out: GSH/pr vehicle
[18] = ip, oxidized mice, % inhibition relative to change due to doxorubicin alone, vs vehicle, read-out: GST/pr vehicle
[19] = ip, oxidized mice, % inhibition relative to change due to doxorubicin alone, vs vehicle, read-out: Prot. Hmg vehicle
[20] = ip, oxidized mice, % inhibition relative to change due to doxorubicin alone, vs vehicle, read-out: Prot. Ox/pr vehicle
[21] = ip, oxidized mice, % inhibition relative to change due to doxorubicin alone, vs vehicle, read-out: SOD/pr vehicle
[22] = oxidized mice, 50 mg/kg IP x3 days + doxorubicin, computed as a function of its own (healthy, compound only), read-out: mean % effect relative to doxorubicin alone, all parameters (Its own)

Row | Brain/BWi [3] [%] | SMILES | TEAC [1] | inhibition in vivo at 50 mg/kg [2, 5] [%] | change in vivo at 50 mg/kg [2, 6] [%] | change in vivo at 50 mg/kg [2, 7] [%] | change in vivo at 50 mg/kg [2, 8] [%] | change in vivo at 50 mg/kg [2, 9] [%] | change in vivo at 50 mg/kg [2, 10] [%] | change in vivo at 50 mg/kg [2, 11] [%] | change in vivo at 50 mg/kg [2, 12] [%] | change in vivo at 50 mg/kg [2, 13] [%] | change in vivo at 50 mg/kg [2, 14] [%] | change in vivo at 50 mg/kg [2, 15] [%] | change in vivo at 50 mg/kg [2, 16] [%] | change in vivo at 50 mg/kg [2, 17] [%] | change in vivo at 50 mg/kg [2, 18] [%] | change in vivo at 50 mg/kg [2, 19] [%] | change in vivo at 50 mg/kg [2, 20] [%] | change in vivo at 50 mg/kg [2, 21] [%] | change in vivo at 50 mg/kg [2, 22] [%] | further results
1 | -2.7 | CC1=NN(c2ccccc2)C(=O)C1C1COCCN1O (stereo not shown) [(11), 4-(4-hydroxymorpholin-3-yl)-3-methyl-1-phenyl-1H-pyrazol-5(4H)-one] | 2.0 | ~65 | -23.2 | 36.4 | -7.1 | -21.6 | -2.2 | -15.7 | -84.3 | -2.1 | 11.6 | 60.6 | 9.1 | -16 | 1.1 | -2.4 | -69.8 | 18.9 | -64.7 | Average % variation with respect to the vehicle ([3]; 50 mg/kg): did not significantly alter the parameters; Average % variation with respect to the vehicle ([3]; listed as V+(11), 50 mg/kg): -2.0%; CAT/pr [3]: -1.6%; GPX/pr [3]: -3.3%; GSH/pr [3]: -1.2%; GST/pr [3]: -0.9%; Prot. Hmg [3]: 1.7%; Prot. Ox/pr [3]: 1.5%; SOD/pr [3]: -33. %; Kp [4]: > 0.1
2 | 2.7 | CC1=NN(c2ccccc2)C(=O)C1 [edaravone, reference compound] | 0.9 | 75 | -13 | -120 | -130 | -111 | -126 | -117 | -5.2 | -49 | -44.9 | -100 | -106 | -59.2 | -110 | -102 | -22.7 | -32.9 | -77.2 | inhibition in vivo at 50 mg/kg ([2]; ip, with respect to the vehicle): ~75%; mean % effect relative to doxorubicin alone, all parameters (Vehicle) ([2]; oxidized mice, 50 mg/kg IP x3 days + doxorubicin, computed as a function of the vehicle): -72.3%; Average % variation with respect to the vehicle [3]: -2.7%; CAT/pr [3]: -5.0%; GPX/pr [3]: -6.7%; GSH/pr [3]: -5.5%; GST/pr [3]: -3.1%; Prot. Hmg [3]: 3.7%; Prot. Ox/pr [3]: -2.3%; SOD/pr [3]: -2.2%; Kp [4]: 0.123

From patent publication EP2345639A1, “Cyclic hydroxylamine derivatives, their preparation and use as antioxidants” (ABIOGEN PHARMA S.p.A., priority 2009, dated 2011)
